EP0803251B1, “Immediate release pH-independent solid dosage form of cisapride” (JANSSEN PHARMACEUTICA N.V., priority 1996, dated 1997)

Experiments:
[1] = formulations containing cisapride-(L)-tartrate release cisapride in a racemic form; cited from earlier work
clinical = settings: in vivo; for tmax: po
Method: A standard breakfast consists of four slices of bread, one slice of ham, one slice of cheese, butter, jelly and two cups of coffee or tea with if desired milk and/or sugar, was served. […] Thereafter, subjects could resume their usual diet.
The trial medication was taken with 100 ml water.
Blood samples were taken until 48 h post-dosing.
AUClast area under the plasma concentration-time curve from time 0 to the last time point (last quantifiable concentration, calculated by linear trapezoidal summation. AUC∞ area under the plasma concentration-time extrapolated to infinity t½term terminal half-life, defined as 0.693/Sz

[2] = human, in vivo
Excerpt: (AUC is the abbreviation of Area Under the Curve, which is an indication of the amount of active ingredient that is present in the blood).

[3] = Dissolution of salts of cisapride in artificial gastric juice; format: physicochemical
[4] = Dissolution of tablets at different pH-values, USP test <711>, USP-2 dissolution apparatus (paddle); format: physicochemical; settings: conclusion in words
Method: The dissolution of tablets comprising cisapride-(L)-tartrate having the composition and prepared as described in Example 1 was compared with tablets comprising cisapride monohydrate instead of cisapride-(L)-tartrate (the rest of the composition and the preparation being the same) at different pH-values.
The test tablet was brought in a glass container containing 900 ml of the specified buffer at a temperature of 37 °C. The stirring is performed by a paddle at a rotational speed of 50 rpm (rotations per minute). This test is s set forth in USP test <711> in a USP-2 dissolution apparatus. This latter test is described in US Pharmacopeia XXII, pp 1578-1579. a) pH = ± 1.5 (HCl : 0.1 N)

(-)-cisapride-(L)-tartrate
dissolution rates of the diastereomeric salt forms [1]: equal dissolution rates

COc1cc(N)c(Cl)cc1C(=O)N[C@H]1CCN(CCCOc2ccc(F)cc2)C[C@H]1OC (relative stereo) [cisapride monohydrate, cis-4-amino-5-chloro-N-[1-[3-(4-fluorophenoxy)propyl]-3-methoxy-4-piperidinyl]-2-methoxybenzamide, reference compound]
higher exposure of cisapride in comparison with the fasting conditions (clinical; human): 29%
higher peak levels of cisapride in comparison with the fasting conditions (clinical; human): 33%
tmax (clinical; human): 2.3 ± 0.6 h
tmax (clinical; human, tmax): 1.7 ± 0.5 h
bioequivalence of the tartrate and monohydrate formulations (clinical): bioequivalent
ratio of AUC in fed state over AUC in fasted state [2]: about 1.35

COc1cc(N)c(Cl)cc1C(=O)NC1CCN(CCCOc2ccc(F)cc2)CC1OC (racemic) [cisapride-(L)-tartrate]
dissolution in artificial gastric juice ([3]; compared with other salts of cisapride): better dissolution
tmax (clinical; human): 2.1 ± 0.7 h
tmax (clinical; human, tmax): 1.4 ± 0.4 h
bioequivalence of the tartrate and monohydrate formulations (clinical): bioequivalent
bioequivalence with respect to the total exposure (AUC∞) (clinical): bioequivalence is demonstrated
influence of fed or fasting conditions on absorption, peak levels and total exposure (clinical): little influence
dissolution compared with cisapride monohydrate ([4]; 0.1 N HCl (pH = ± 1.5)): comparable
dissolution compared with cisapride monohydrate ([4]; pH 4.5): clearly better
dissolution compared with cisapride monohydrate ([4]; pH = 6.5): clearly superior

COc1cc(N)c(Cl)cc1C(=O)NC1CCN(CCCOc2ccc(F)cc2)CC1OC (racemic) [reference compound]
dissolution compared with cisapride monohydrate ([3]; salt forms of cisapride): dissolve slower than the cisapride monohydrate itself

(+)-cisapride-(L)-tartrate
dissolution rates of the diastereomeric salt forms [1]: equal dissolution rates
